pIC50: −log10 of the molar value.

Six compounds from ChEMBL document CHEMBL4819026, “4-Oxoquinolines and monoamine oxidase: When tautomerism matters” (Eur J Med Chem, 2021) can be followed below.

The species entered for one data set is Homo sapiens. Nature of the data set: Selectivity index, ratio of IC50 for inhibition of human MAOA to IC50 for inhibition of human MAOB.
Data set [1] deals with T1, Amine oxidase [flavin-containing] B (Homo sapiens, UniProt P27338).
T1 sequence (P27338 whole entry): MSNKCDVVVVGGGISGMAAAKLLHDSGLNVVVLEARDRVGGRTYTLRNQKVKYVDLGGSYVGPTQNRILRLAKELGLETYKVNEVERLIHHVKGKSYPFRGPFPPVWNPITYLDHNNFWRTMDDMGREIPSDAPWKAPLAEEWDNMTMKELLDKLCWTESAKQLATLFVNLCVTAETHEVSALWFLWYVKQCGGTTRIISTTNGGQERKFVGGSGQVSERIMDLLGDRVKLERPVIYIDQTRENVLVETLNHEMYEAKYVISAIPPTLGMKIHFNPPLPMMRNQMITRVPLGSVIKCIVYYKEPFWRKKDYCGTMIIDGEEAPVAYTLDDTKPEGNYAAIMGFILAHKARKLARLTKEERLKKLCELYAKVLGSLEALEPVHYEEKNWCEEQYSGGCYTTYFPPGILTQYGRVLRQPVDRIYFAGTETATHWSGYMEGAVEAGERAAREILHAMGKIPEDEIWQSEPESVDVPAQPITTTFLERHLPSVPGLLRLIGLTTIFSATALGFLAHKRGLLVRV
Nature of the data set: Inhibition of recombinant human MAOB using kynuramine as substrate measured for 30 mins by fluorescence spectrophotometric assay.

Data set [2] deals with T2, Amine oxidase [flavin-containing] A (Homo sapiens, UniProt P21397).
T2 sequence (P21397 whole entry): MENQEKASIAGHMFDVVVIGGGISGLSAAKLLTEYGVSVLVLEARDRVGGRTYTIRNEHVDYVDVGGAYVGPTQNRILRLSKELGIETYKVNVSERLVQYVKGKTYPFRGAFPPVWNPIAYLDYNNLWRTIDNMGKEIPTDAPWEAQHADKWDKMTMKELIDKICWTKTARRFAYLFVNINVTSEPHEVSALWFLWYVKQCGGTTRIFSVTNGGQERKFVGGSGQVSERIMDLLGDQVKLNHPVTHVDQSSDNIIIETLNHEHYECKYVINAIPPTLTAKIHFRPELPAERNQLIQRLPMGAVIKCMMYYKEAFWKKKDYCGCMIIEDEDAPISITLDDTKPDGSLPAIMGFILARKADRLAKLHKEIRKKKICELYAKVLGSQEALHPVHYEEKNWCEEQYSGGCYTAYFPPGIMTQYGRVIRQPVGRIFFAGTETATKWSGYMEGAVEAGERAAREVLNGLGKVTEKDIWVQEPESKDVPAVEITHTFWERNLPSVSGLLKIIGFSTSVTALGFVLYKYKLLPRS
Nature of the data set: Inhibition of recombinant human MAOA using kynuramine as substrate measured for 30 mins by fluorescence spectrophotometric assay.

Data set [3] relates to SH-SY5Y. Nature of the data set: Cytotoxicity against differentiated human SH-SY5Y cells assessed as cell viability at 1 to 10 uM after 24 hrs by SRB assay relative to control. The format is cell-based. Conditions: dose 1-10 µM. Background: In SRB staining, fixed cells bind dye roughly in proportion to their protein.
The subject of data set [4] is SH-SY5Y. Nature of the data set: Cytotoxicity against differentiated human SH-SY5Y cells assessed as cell viability at 1 to 10 uM after 24 hrs by neutral red uptake assay relative to control. The class given is cell-based. Particulars: dose 1-10 µM.
The target in data set [5] is T2, Amine oxidase [flavin-containing] A. Nature of the data set: Inhibition of recombinant human MAOA using kynuramine as substrate at 10 uM measured for 30 mins by fluorescence spectrophotometric assay relative to control. Conditions: 0.5 h.
The target in data set [6] is T1, Amine oxidase [flavin-containing] B. Nature of the data set: Inhibition of recombinant human MAOB using kynuramine as substrate at 10 uM measured for 30 mins by fluorescence spectrophotometric assay relative to control. Conditions: 0.5 h.
Data set [7] in a line: Cytotoxicity against differentiated human SH-SY5Y cells assessed as cell viability at 10 uM after 24 hrs by resazurin reduction assay relative to control. The class given is cell-based. Conditions: read-out: Activity. In general terms: Resazurin is reduced to fluorescent resorufin, in cell work by metabolically active cells.

Take `Cc1ccc(NC(=O)c2cn(C)c3ccccc3c2=O)cc1C`: the Ratio IC50 in the data set filed under Homo sapiens stood at 19.6. Also, the pIC50 (in general, the negative decadic logarithm of the IC50, by convention in mol/L) in data set [1] was 4.08; in data set [2], 2.94. The Activity entry with SH-SY5Y [3] and with SH-SY5Y [4] was “Non-Toxic” throughout.
`Cc1ccc(NC(=O)c2c[nH]c3ccccc3c2=O)cc1C`: the figures for the inhibition at 10 µM in data set [5] and in data set [6] were 15% and 35%, respectively.
For the compound `Cn1cc(C(=O)Nc2ccc(Cl)c(Cl)c2)c(=O)c2ccccc21`, the Ratio IC50 in the data set filed under Homo sapiens is more than 1890. Besides, the pIC50 in data set [1] is 5.28. Moreover, in data set [5], the inhibition (usually how much of the control response was suppressed) at 10 µM turned out to be 38%. For the same compound, the viability at 24 h, 10 µM in data set [7] is more than 90%. Moreover, the Activity result in the data set with SH-SY5Y [3] and in the data set on SH-SY5Y [4] was “Non-Toxic” throughout.
For `Cn1cc(C(=O)Nc2cccc(Cl)c2)c(=O)c2ccccc21`, in the data set listed under Homo sapiens, the Ratio IC50 amounted to 258. Also, the pIC50 was 4.54 in data set [1] and 2.13 in data set [2]. Further, in data set [7], the viability at 24 h, 10 µM was more than 90%. Besides, the Activity entry in the data set with SH-SY5Y [3] and in the data set on SH-SY5Y [4] was “Non-Toxic” each time.
Turning to `O=C(Nc1ccc(Cl)c(Cl)c1)c1c[nH]c2ccccc2c1=O`, the Ratio IC50 in the data set listed under Homo sapiens was 157. Moreover, the results for the pIC50 in data set [1] and in data set [2] were 4.95 and 2.76, respectively. Further, the Activity entry with SH-SY5Y [3] and with SH-SY5Y [4] was “Non-Toxic” in each case.
As to `O=C(Nc1cccc(Cl)c1)c1c[nH]c2ccccc2c1=O`, the inhibition at 10 µM was determined as 8% in data set [5] and 40% in data set [6].
